Measurements as given in patent US20260060982A1, “USE OF BTK INHIBITOR AND SINGLE-DOSE DRUG” (HUBEI BIO-PHARMACEUTICAL INDUSTRIAL TECHNOLOGICAL INSTITUTE …, priority 2023, published 2026).

Columns and labels:
[1] = biological target: T1, BTK (Homo sapiens, UniProt Q06187); experiment: Inhibition of BTK kinase activity (HTRF); format: biochemical
Experimental: The specific experimental steps were as follows:
The BTK kinase/peptide mix solution was added to the assay plate at 5 μL per well, and centrifuged at 1000 rpm for 1 min. The assay plate was incubated at 23° C. for 15 min.
C. An ATP solution (3968 μL of 1.33× kinase reaction buffer and […] of 10 mM ATP) was prepared, added to the assay plate at 2.5 μL per well, and centrifuged at 1000 rpm for 1 min. The assay plate was incubated at 23° C. for 90 min.
The assay plate was incubated at 23° C. for 60 min and read on the Envision multilabel reader.
E. IC50 results were analyzed using XLFIT5 (Formula 205) from IDBS.

[2] = system: IgM-induced calcium signaling in RAMOS cells; experiment: Antagonism of IgM-induced calcium signaling in RAMOS cells (FLIPR); format: cell-based; settings: Homo sapiens, Fluo-4D dye
Experimental: The specific test steps were as follows:
A. Ramos cells (ECACC) were seeded in a 384 experimental plate using cell culture medium (RPMI 1640 medium supplemented with 10% fetal bovine serum) at a density of 5×10^6 cells/mL, 20 μL per well.
C. The cell plate and the compound plate were placed into FLIPR. 10 μL was transferred from the compound plate by the FLIPR instrument and added to the cell plate. The cell plate was removed and incubated in a 37° C. incubator for 1 h.
D. One hour later, 40 μL of Fluo-4D dye (Life Technologies, formulated as 0.5× with 40 mL of HBSS and HEPES buffer) was added to the cell plate and incubated at 37° C. for 50 min.
E. 10 μL of IgM at 8×EC80 concentration was added, and the plate was read using FLIPR.
F. The IC50 results of the compounds were analyzed using EXCEL and Prism statistical software.

[3] = system: anti-DNP IgE-induced passive cutaneous anaphylaxis in BALB/c mice; experiment: Passive cutaneous anaphylaxis (PCA) model in mice induced with anti-DNP IgE; format: in vivo
From the text: Passive cutaneous anaphylaxis test, also known as PCA reaction, is a local allergic reaction caused by antibodies that bind to the same or different animal tissues. The PCA animal model in the present disclosure was a passive sensitization model in which IgE binds to specific receptors on skin mast cells. When allergens were stimulated, local mast cells released allergic mediators, thereby increasing local vascular permeability. […] The specific steps were as follows:
The PCA model in mice was induced using anti-DNP IgE. Specifically, BALB/c mice were divided into 9 groups, namely, a normal control group (no administration, injection, or feeding of any solvent), a model group (no administration, injection, or feeding of any solvent), a prednisone group (10 mg/kg, administered for 3 consecutive days, QD (once a day), prednisone concentration of 1 mg/mL, and an administration volume of 10 mL/kg), a cetirizine group (20 mg/kg, administered for 3 consecutive days, QD, cetirizine concentration of 2 mg/mL, and an administration volume of 10 mL/kg), a low-dose group and a medium-dose group for the test substance LOU-064 (15 mg/kg and 45 mg/kg, administered for 3 consecutive days, BID (twice a day), LOU-064 concentrations of 1.5 mg/mL and 4.5 mg/mL, and an administration volume of 10 mL/kg), and a low-dose group, a medium-dose group, and a high-dose group for compound (I) (15 mg/kg, 45 mg/kg, and 90 mg/kg, administered for 3 consecutive days, BID, compound (I) concentrations of 1.5 mg/mL, 4.5 mg/mL, and 9 mg/mL, and an administration volume of 10 mL/kg), with 9 mice in each group, administered by gavage for a total of 4 days. On day 3 of the administration, anti-DNP IgE (Sigma-Aldrich) was injected into the left ears of 8 groups of mice (no normal control group), and the same volume of PBS was injected into the right ears of 8 groups and the left and right ears of the normal control group to allow it to bind to mast cells. Then, 24 hours after the fourth day of anti-DNP IgE injection, a mixed solution of antigen (DNP-HAS, Sigma) and pigment Evan's Blue (Sigma) (0.25 mL/mouse, i.v.) was injected into the tail vein (the normal control group was injected with the same volume of the mixed solution of antigen and pigment Evan's Blue). The antigen reacted with the antibody attached to the mast cells, causing a local allergic reaction, increased local vascular permeability, and pigment penetration into the tissue. The reaction intensity was determined by measuring the local pigment content 30 minutes later. The dye was extracted from the left and right ears, and the absorbance of Evan's blue was measured at a specific wavelength. […] The efficacy effects of each test substances in the PCA animal model were evaluated.

[4] = biological target: T1, BTK; experiment: BTK target occupancy in peripheral blood mononuclear cells (ELISA), Phase I single-dose trial; format: in vivo; set-up: endogenous in cells; host or cells: human peripheral blood mononuclear cells (PBMCs) of trial subjects, lysate
Experimental: The receptor occupancy of compound (I) in human peripheral blood mononuclear cell lysate was detected by ELISA. The analysis method was to perform relative quantitative determination of BTK in human peripheral blood mononuclear cells (PBMCs) using ELISA.
PBMC lysate containing BTK was incubated with compound (I), with a control containing no compound (I), then incubated with biotinlated compound (I), and then added to a well plate pre-coated with streptavidin. When compound (I) was incubated with PBMC lysate, it was bound to BTK, thereby preventing BTK from binding to biotinylated compound (I). Since the complex cannot bind to the well plate, it was difficult to generate a response signal.
Rabbit anti-BTK primary antibody incubated with the above samples would bind to BTK. Tetramethylbenzidine (TMB) was the substrate of HRP coupled to the anti-rabbit secondary antibody. […] After color development, the absorbance was measured at a wavelength of 450 nm. […] The content of free BTK was proportional to the absorbance. In this way, the content of BTK can be indirectly detected. […]
The analysis was performed using the Per-protocol set. The differences in BTK target occupancy rate among the different dose groups was analyzed using the Chi-Square test; and the relationship between dose, plasma concentration, and BTK target occupancy rate was analyzed using Logistic Regression.

T1 sequence (Q06187 whole entry): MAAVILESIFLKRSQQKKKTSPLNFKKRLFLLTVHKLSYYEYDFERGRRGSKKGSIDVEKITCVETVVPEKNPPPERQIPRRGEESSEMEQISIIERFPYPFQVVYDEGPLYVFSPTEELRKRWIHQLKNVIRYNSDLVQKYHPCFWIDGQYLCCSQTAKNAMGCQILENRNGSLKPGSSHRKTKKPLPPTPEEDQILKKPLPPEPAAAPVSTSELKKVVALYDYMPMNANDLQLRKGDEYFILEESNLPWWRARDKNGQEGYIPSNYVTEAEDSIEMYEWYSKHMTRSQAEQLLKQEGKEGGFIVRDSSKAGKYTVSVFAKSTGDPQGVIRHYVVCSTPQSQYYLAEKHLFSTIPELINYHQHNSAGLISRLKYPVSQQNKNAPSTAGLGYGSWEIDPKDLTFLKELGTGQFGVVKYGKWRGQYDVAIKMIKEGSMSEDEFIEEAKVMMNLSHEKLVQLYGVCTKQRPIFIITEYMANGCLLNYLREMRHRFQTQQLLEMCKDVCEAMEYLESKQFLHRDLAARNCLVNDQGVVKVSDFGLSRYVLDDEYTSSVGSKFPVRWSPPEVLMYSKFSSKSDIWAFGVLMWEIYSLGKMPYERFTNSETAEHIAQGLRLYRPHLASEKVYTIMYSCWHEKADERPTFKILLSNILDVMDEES

IC50 [1]: ≤ 4 nM
IC50 [2]: 55 ± 3.34 nM
maximum BTK target occupancy rate ([4]; single administration of 10 mg): 58.93%
maximum BTK target occupancy rate ([4]; single administration of 25 mg or above): ~100%
Compound: C=CC(=O)N1CCC[C@@H](n2nc(-c3ccc(Oc4ccccn4)cc3)c3c(N)n[nH]c(=O)c32)C1 [compound (I), (R)-1-(1-acryloylpiperidin-3-yl)-4-amino-3-(4-(pyridin-2-yloxy)phenyl)-1H-pyrazolo[3,4-d]pyridazin-7(6H)-one]
Concentration of Evan's Blue, Left ear, Average value ([3]; 15 mg/kg BID by gavage): 25.68 µg/mL
Concentration of Evan's Blue, Left ear, Average value ([3]; 45 mg/kg BID by gavage): 18.21 µg/mL
Concentration of Evan's Blue, Left ear, Average value ([3]; 90 mg/kg BID by gavage): 22.00 µg/mL
Evan's Blue content in the modeling ear compared with the model group ([3]; three dose groups (15, 45, 90 mg/kg BID)): significantly reduced
